In a melting point compilation (Tetko et al.; mined from patent text by program, amines drawn as free bases though some values may be those of a salt):

| SMILES | melting point |
| --- | --- |
| COCCOc1ccc(CCCO)c(Oc2ncc(Cl)cc2Cl)c1 | 83.9 to 84.5 °C |
| CCCn1c(=O)c2c(nc(C=Cc3cc(OC)c(OC)cc3S(=O)(=O)N3CCCCC3)n2C)n(CCC)c1=O | 266 to 268 °C |
| CC(C)(C)OC(=O)NC1CCCCCC=CC2CC2(C(=O)NS(=O)(=O)C2CC2)NC(=O)C2CC(OC(=O)c3ccc(Cl)cc3)CN2C1=O (stereo unspecified) | 143 to 145 °C |
| CC12CCC3C(CCC4CC(=O)CCC43C)C1CCC2C#N (stereo unspecified) | 150 to 152 °C |
| CC(C)NC(=O)c1c(NC(=O)c2cc(C(F)(F)F)nn2-c2ncccc2Cl)ccc2ncccc12 | 182 to 183 °C |
| CC(C)(C)OC(=O)NCCNC(=O)Nc1ccccc1C(=O)NC1CCN(C(c2ccccc2)c2ccccc2)CC1 | 226 to 228 °C |
| FC(F)(F)c1cc(Cl)c(-c2nc(C(F)(F)F)c(Br)[nH]2)c(Cl)c1 | 295 °C |
| CCC1(CC)c2cc(C(=O)O)c(C(=O)O)cc2C(CC)(CC)N1C(=O)c1ccccc1 | 244 to 246 °C |
| COc1ccc2c3c1OC1C4(CCC5(F)C(C2)N(C(=O)C2CC2)CCC315)OCCO4 (stereo unspecified) | 191 to 193 °C |
| NS(=O)(=O)NC(=O)CCCCC1CCSS1 (stereo unspecified) | 141 to 142 °C |
| CCCCc1nc(Cl)c(COC)n1Cc1ccc(C(=O)O)cc1 | 126 to 128 °C |
| Cc1c(CN2CCc3c(c4cccc(F)c4n3C)C2=O)ncn1C(=O)OCc1ccccc1 | 126 to 128 °C |
| CC(C)(C)NS(=O)(=O)c1c(Cl)cccc1-c1ccccc1 | 168 to 170 °C |
| Cc1ccc2c(c1)CNC(=O)CC2 | 174 to 175 °C |
| Cc1nc([C@H](Cc2ccccn2)N(C=O)c2cc3ccccc3[nH]2)n(C)c1-c1ccc(-n2ccnc2)cc1 | 156 to 157 °C |
| COC(=O)c1c(-c2ccc(C)cc2)ccc2ccccc12 | 109 to 111 °C |
| CCCc1c(OC2CCCOC2)ccc2c(O)cc(=O)oc12 (stereo unspecified) | 163 to 165 °C |
| O=C(OCN1C(=O)C2CCCN2S1(=O)=O)c1c(Cl)cccc1Cl (stereo unspecified) | 92 to 93.5 °C |
| N#Cc1ccc(O)c(I)c1 | 144 to 146 °C |
| CC1CN(N=Cc2cccnc2)C(=O)NN1 (stereo unspecified) | 235 to 237 °C |
| Nc1nc(SSc2n[nH]c(N)n2)n[nH]1 | 250 to 256 °C |
| O=C(c1ccccc1)c1nsc(N2CCN(c3ccccn3)CC2)n1 | 110 to 111 °C |
| COC(=O)N1CCC(=NO)c2cc(Cl)ccc21 | 162 to 163 °C |

| SMILES | melting point |
| --- | --- |
| O=C1CCCN(C(=O)c2ccc([N+](=O)[O-])cc2Cl)c2ccsc21 | 180 to 185 °C |
| C[C@@H]1NC(=O)C[C@@]1(O)C1CC1 | 133 to 140 °C |
| COc1ccc(C)c(O)c1 | 34 to 35 °C |
| CCn1c2c(c3ccccc31)S(=O)(=O)N(C)C(C(=O)Nc1ccccn1)=C2O | 232 °C |
| O=S(=O)(c1ccc(F)c(C(F)(F)F)c1)N1CCC(Nc2nc(Nc3cccc(C(F)(F)F)c3)nc(OCC(F)(F)F)n2)CC1 | 250 to 252 °C |
| O=C(O)c1cccc2cc(-c3ccccc3)oc12 | 212 to 214 °C |
| COc1ccc2cccc(C=O)c2c1 | 61 to 63 °C |
| O=C(NCCOc1cccnn1)C1Cc2ccccc2N1S(=O)(=O)c1ccc(-c2cccc(C(F)(F)F)c2)cc1 (stereo unspecified) | 65 to 71 °C |
| O=c1n(CCCC2CCCCC2)nnn1-c1ccc(S(=O)(=O)Cl)cc1 | 114 to 115 °C |
| COc1ccc(-c2ccc3ccc(OC)cc3c2)cc1 | 154 °C |
| O=C(NCCO[N+](=O)[O-])c1csc(-c2cccc([N+](=O)[O-])c2)n1 | 149 to 152 °C |
| COc1ccc(C2CC3(C)C(CC45OCCOC43OCCO5)C3CC(C)C4(O)CCCCC4C23)cc1 (stereo unspecified) | 168 to 169 °C |
| O=C(O)Cc1cccc(OCCCN(Cc2cccc(F)c2F)CC(c2ccccc2)c2ccccc2)c1 | 148 °C |
| OC/C=C/CC/C=C/CC/C=C/CO | 37 to 38 °C |
| CCCNC(=O)NNC(=O)c1ccc(OC)cc1 | 176 to 179 °C |
| CC1(C)CC(=O)C2=C(C1)NC1=C(C(=O)CC(C)(C)C1)C2c1ccc(Cl)c(Cl)c1 | > 300 °C |
| CC1(C)Cc2cc(C3=NNC(=O)C4CC34)ccc2NC1=O (stereo unspecified) | 275 to 277 °C |
| COC(=O)COc1ccc2ccc(O)c(C(C)=O)c2c1 | 113 to 114 °C |
| COc1ccc(C(=O)Nc2ccc(C(=O)N3CCCC3)cc2)cc1C12CC3CC(CC(C3)C1)C2 | 239 to 242 °C |
| COc1cc(-c2cnc3[nH]cc(C(=O)CC(C)C)c3n2)cc(OC)c1OC | 210 to 211 °C |
| CCOC(=O)c1c(Nc2cc(F)ccc2[N+](=O)[O-])sc2ccccc12 | 137 to 140 °C |
| CC(C)C[C@@H](C(=O)O)N(C)C(=O)OC(C)(C)C | 53 to 55 °C |

More lines, now with the values ahead:

| melting point | SMILES |
| --- | --- |
| 222 to 224 °C | CSCCOc1ccc(-c2ccc3c(c2)C=C(C(=O)Nc2ccc(CN(C)C4CCOCC4)cc2)CCS3(=O)=O)cc1 |
| 88 to 90 °C | CCSc1ccc(Oc2ccc(C(=O)c3ccccc3)cc2)nc1C#N |
| 109 to 110 °C | Cc1c(C)c([N+](=O)[O-])c(C)c2c1OC(C)(C)C2c1ccc(C(C)C)cc1 (stereo unspecified) |
| 168 to 171 °C | O=c1c(-c2ccccc2)c(Cn2ccnc2)oc2ccccc12 |
| 241 to 243 °C | CN1C(=O)C2(COc3cc4c(cc32)OCCO4)c2c(NC(=O)c3ccccc3C(F)(F)F)cccc21 (stereo unspecified) |
| 156 to 157 °C | Cc1ccc(Sc2ccccc2)c(C(=O)O)c1 |
| 203 to 207 °C | COCCNC(=O)c1cc(C(=O)O)cc([N+](=O)[O-])c1 |
| 116 to 118 °C | Cc1ccc(C2c3c(cc(C)c(Br)c3C)OC2(C)C)cc1 (stereo unspecified) |
| 200 to 201 °C | COc1cc(Br)c2nc(-c3ccc(OC)c(F)c3)cc(O)c2c1 |
| 111 to 112 °C | COc1ccc(C2Sc3cccc4cccc(c34)N(CCN(C)C)C(=O)C2OC(C)=O)cc1 (stereo unspecified) |
| > 300 °C | O=C(O)c1cc(=O)c2cc3[nH]c(=O)oc3cc2[nH]1 |
| 234 to 235 °C | O=C1Cn2ccnc2-c2c(Br)cccc2N1 |
| 178 to 180 °C | CC(=O)NC[C@H]1CN(c2ccc(-c3nnc(CCCl)s3)c(F)c2)C(=O)O1 |
| 173 to 175 °C | CCCCC(=N)NC(=O)Nc1ccccc1O |
| 198 to 200 °C | Cc1ccc(-c2ccc(C(=O)Nc3ccc4nc(CN5CCCCC5)ccc4c3)cc2)cc1 |
| 195 to 197 °C | Brc1cccc(-c2ccnn2-c2ccc3c(c2)OCO3)c1 |
| 40 °C | CCCCCC1=NNC(=O)CC1 |
| 154 to 156 °C | CC(C)(C)OC(=O)NC1CCN(C(=O)[C@@]23C[C@@H](c4ccccc42)c2ccc(Cl)cc23)CC1 |
| 65 to 68 °C | CNC(=O)N1C(=O)CC(c2ccc(OC)c(OC3CCCC3)c2)N1C (stereo unspecified) |

| melting point | SMILES |
| --- | --- |
| 84 to 85 °C | Cc1ccc(-c2nc3ccccc3s2)cc1 |
| 88.9 to 90 °C | O=C(NCCCc1ccncc1)N(CCCC12CC3CC(CC(C3)C1)C2)CC(F)(F)F |
| 85 to 88 °C | CCCCCN=C1SC(=CC(=O)O)C(=O)N1CCCCC |
| 106 to 108 °C | COc1cccc(Cn2c(=O)c3c(Cl)cc(Cl)cc3n(Cc3ccccc3)c2=O)c1 |
| 91 to 92 °C | CCOC(=O)c1cn(C2CCCCC2)nc1O |
| 201 to 203 °C | Cc1c(C(=O)Nc2ccc(N3CCN(CCCc4cccnc4)CC3)c(C#N)c2)cnn1-c1ccc(Cl)cc1 |
| 214 to 215 °C | O=C(Nc1c[nH]nc1C(=O)NCCc1ccccc1)c1ccccn1 |
| 205 to 207 °C | NC(=S)NCC(c1ccccc1)c1ccccc1 |
| 181 to 182 °C | COCCOC(=O)C1=C(C)Nc2nccn2C1c1ccccc1C(F)(F)F (stereo unspecified) |
| 58 to 60 °C | CC(C)(C)C(=O)OCOc1ccc(C=O)cc1OC(=O)C(C)(C)C |
| 157 to 158 °C | CC(C)c1cccc2c1CC(C(=O)O)SCC2=O (stereo unspecified) |
| > 250 °C | CC(C)C1=C(C#N)C(c2cccc(Cl)c2Cl)c2c[nH]nc2N1 (stereo unspecified) |
| 240 to 242 °C | C=C(Br)c1cc(O)cc2nc(-c3ccc(O)c(F)c3F)oc12 |
| 41 to 42 °C | Cc1cc(CCCCCOc2c(Cl)cc(C3=NCCO3)cc2Br)on1 |
| 269 to 271 °C | Oc1ccc2nc(-c3ccc(O)c(F)c3)oc2c1 |
| 107 to 108 °C | CC(C)(C)C(=O)C=C(C(=O)C(C)(C)C)n1cncn1 |
| 172 to 174 °C | C#Cc1cn(C2OC(CO)C(O)C2=C)c(=O)[nH]c1=O (stereo unspecified) |
| 175 to 177 °C | CCOC(=O)CNC(=O)c1nc2ccc(Cl)nn2n1 |
| 276 to 281 °C | CC1NC(=O)NN=C1c1ccc(N2CCCC2)cc1 (stereo unspecified) |

| melting point | SMILES |
| --- | --- |
| 51 to 54 °C | COC(=O)c1cscc1NC(=O)C(F)Cl (stereo unspecified) |
| 207 to 208 °C | CC(C)n1nc(-c2cc(NC(=O)c3ccccc3)cnc2-c2ccccc2)ccc1=O |
| 165 to 168 °C | O=C(O)CC(Sc1nc2ccccc2s1)C(=O)O (stereo unspecified) |
| 56 to 58 °C | CC(C)CCC(C)(C#N)N=NC(C)(C#N)CCC(C)C (stereo unspecified) |
| 173 to 178 °C | CS(=O)(=O)c1ccc(-c2nc3cc(OC(=O)N4CCCCC4)ccc3s2)c(F)c1 |
| 122 to 124 °C | CCc1nn(CCO)c(CC)c1Oc1cc(C#N)cc(-n2cncn2)c1 |
| 194 to 197 °C | CC1=NS(=O)(=O)N(C)C(Oc2ccc([N+](=O)[O-])cc2)=N1 |
| 133 to 137 °C | Cc1oc(=O)c(Nc2ccccc2)nc1Cl |
| 214 °C | N#CC(Cc1ccc(O)cc1)c1noc2cc(O)ccc12 (stereo unspecified) |
| 77 to 79 °C | COC1(c2ccc(C#Cc3cc(F)cc(F)c3NC(=O)C(C)(C)C)cc2)CCOCC1 |
| 186 to 188 °C | CCOC(=O)Cc1c(C(=O)c2ccc(Cl)cc2)[nH]c2cc(Cl)ccc12 |
| 215 to 216 °C | NC(=O)N1C(=O)C(=C(OC(=O)c2ccco2)c2cccs2)c2cc(F)c(Cl)cc21 |
| 211 to 213 °C | COc1cccc(OC)c1CN1CC2CCCN2c2ncccc21 (stereo unspecified) |
| 198 to 200 °C | CSc1ncc2cc(-c3c(Cl)cccc3Cl)c(=N)n(C)c2n1 |
| 235 °C | O=C(CO)Nc1ccccc1-c1nnc(C(c2ccc(Cl)cc2)c2c(Cl)cc(-n3ncc(=O)[nH]c3=O)cc2Cl)o1 (stereo unspecified) |
| 123 to 125 °C | CCOC(OCC)c1coc2cc3c(cc2c1=O)OCO3 |
| 207 to 208 °C | CCOC(=O)c1ccc(NC(=O)C=C(c2ccc(Br)cc2)c2ccc(Br)cc2)cc1 |
| 162 to 164 °C | O=C(C=Cc1ccc(N2CCCC2)cc1)c1ccc2c(c1)CCC2 |
